# Test results published in BindingDB's records for doi:10.1124/jpet.104.067884 (Sanofi-Synthelabo Recherche, 2004).
# Experiments:
# Cannabinoid receptor 2 = Cannabinoid receptor 2 (Homo sapiens, UniProt P34972)
# Cannabinoid receptor 1 = Cannabinoid receptor 1 (Homo sapiens, UniProt P21554)
# Cannabinoid receptor 1, sequence (P21554 whole entry): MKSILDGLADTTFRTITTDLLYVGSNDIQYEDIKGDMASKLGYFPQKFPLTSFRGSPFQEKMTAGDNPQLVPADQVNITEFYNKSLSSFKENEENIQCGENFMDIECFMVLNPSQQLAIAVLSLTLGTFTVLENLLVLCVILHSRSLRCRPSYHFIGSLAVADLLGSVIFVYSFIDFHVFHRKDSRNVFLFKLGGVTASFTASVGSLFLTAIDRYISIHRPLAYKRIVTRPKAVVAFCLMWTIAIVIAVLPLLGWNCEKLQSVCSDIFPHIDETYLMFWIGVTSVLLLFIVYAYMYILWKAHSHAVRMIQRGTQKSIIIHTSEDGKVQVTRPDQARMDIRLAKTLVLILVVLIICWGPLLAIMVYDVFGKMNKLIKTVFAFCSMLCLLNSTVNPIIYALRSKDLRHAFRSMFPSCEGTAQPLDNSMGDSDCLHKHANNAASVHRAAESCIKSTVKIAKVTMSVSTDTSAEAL
# Cannabinoid receptor 2, sequence (P34972 whole entry): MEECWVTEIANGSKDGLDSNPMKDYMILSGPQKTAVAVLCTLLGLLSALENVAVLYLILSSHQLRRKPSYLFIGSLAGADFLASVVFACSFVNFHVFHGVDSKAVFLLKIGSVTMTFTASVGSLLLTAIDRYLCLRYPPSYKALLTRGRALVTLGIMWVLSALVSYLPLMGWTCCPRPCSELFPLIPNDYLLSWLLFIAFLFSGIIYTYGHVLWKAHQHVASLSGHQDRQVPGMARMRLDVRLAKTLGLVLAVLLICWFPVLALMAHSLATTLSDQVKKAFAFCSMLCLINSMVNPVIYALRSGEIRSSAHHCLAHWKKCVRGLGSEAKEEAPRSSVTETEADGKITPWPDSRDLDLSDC
structure (smiles),measurement,setting,value
CCc1c(C(=O)NN2CCCCC2)nn(-c2ccc(Cl)cc2Cl)c1-c1ccc(Br)cc1 [SR 147778],Ki,Cannabinoid receptor 2,0.442 µM
same,Ki,Cannabinoid receptor 1,0.0035 µM
